Experimental data reported in patent US4358441A, “Nicotinic derivatives of glucosamine and related pharmaceutical compositions” (Laboratorio Guidotti & C. S.p.A., priority 1980, dated 1982).

Columns and labels:
[1] = tested on: plasma levels of triglycerides; test: Effect of oral administration on plasma levels of triglycerides in the empty rat; assay type: in vivo, rat (COBS CD (SD) BR male); conditions: for Percent variations of plasma triglycerides with respect to the controls: empty rat; for Time within which the effect on triglycerides disappears: rat
[2] = tested on: plasma levels of free glycerol; test: Effect of oral administration on plasma levels of free glycerol in the empty rat; assay type: in vivo, rat (COBS CD (SD) BR male); conditions: for Percent variations of plasma free glycerol with respect to the controls: empty rat
[3] = tested on: plasma levels of cholesterol; test: Effect of oral administration on plasma levels of cholesterol in the empty rat; assay type: in vivo, rat (COBS CD (SD) BR male); conditions: for Percent variations of plasma cholesterol with respect to the controls: 100 mg/kg oral referred to nicotinic acid, empty rat
[4] = Plasma levels (kinetics) of free nicotinic acid after oral administration in the rat; conditions: 100 mg/kg p.o.
[5] = Acute toxicity (LD50) in rats of both sexes, oral and intraperitoneal route; conditions: rat, in vivo, LD50, rat
in vivo = conditions: rat, po, 100 mg/kg
plasma levels of FFA = test: Effect of oral administration on plasma levels of FFA in the empty rat; conditions: for Percent variations of plasma FFA with respect to the controls: empty rat
[6] = 30 mg/kg oral referred to nicotinic acid, 1 h
[7] = 30 mg/kg oral referred to nicotinic acid, 2 h
[8] = 30 mg/kg oral referred to nicotinic acid, 4 h
[9] = 30 mg/kg oral referred to nicotinic acid, 6 h
[10] = 100 mg/kg oral referred to nicotinic acid, 2 h
[11] = 100 mg/kg oral referred to nicotinic acid, 4 h
[12] = 100 mg/kg oral referred to nicotinic acid, 6 h
[13] = 100 mg/kg oral referred to nicotinic acid, 8 h
[14] = 100 mg/kg oral referred to nicotinic acid, 10 h
[15] = 100 mg/kg oral referred to nicotinic acid, 16 h
[16] = 100 mg/kg oral referred to nicotinic acid, 24 h

O=C(O)c1cccnc1 [NICOTINIC ACID, nicotinic acid]
Percent variations of plasma triglycerides with respect to the controls [1, 6]: -49%
Percent variations of plasma triglycerides with respect to the controls [1, 7]: -49%
Percent variations of plasma triglycerides with respect to the controls [1, 8]: +8%
Percent variations of plasma triglycerides with respect to the controls [1, 9]: +17%
Time within which the effect on triglycerides disappears ([1]; 30 mg/kg oral): ≤ 4 h
Percent variations of plasma triglycerides with respect to the controls [1, 10]: -57%
Percent variations of plasma triglycerides with respect to the controls [1, 11]: -58%
Percent variations of plasma triglycerides with respect to the controls [1, 12]: -59%
Percent variations of plasma triglycerides with respect to the controls [1, 13]: -38%
Percent variations of plasma triglycerides with respect to the controls [1, 14]: +4%
Percent variations of plasma triglycerides with respect to the controls [1, 15]: +21%
Percent variations of plasma triglycerides with respect to the controls [1, 16]: -16%
Time within which the effect on triglycerides disappears ([1]; 100 mg/kg oral): within the tenth hour
Percent variations of plasma free glycerol with respect to the controls [2, 6]: -72%
Percent variations of plasma free glycerol with respect to the controls [2, 7]: -27%
Percent variations of plasma free glycerol with respect to the controls [2, 8]: +16%
Percent variations of plasma free glycerol with respect to the controls [2, 9]: +15%
Activity on free glycerol ([2]; 30 mg/kg oral, rat): active only after 1 hour
Percent variations of plasma free glycerol with respect to the controls [2, 10]: -73%
Percent variations of plasma free glycerol with respect to the controls [2, 11]: -71%
Percent variations of plasma free glycerol with respect to the controls [2, 12]: +9%
Percent variations of plasma free glycerol with respect to the controls [2, 13]: +11%
Percent variations of plasma free glycerol with respect to the controls [2, 14]: +16%
Percent variations of plasma free glycerol with respect to the controls [2, 15]: -12%
Percent variations of plasma free glycerol with respect to the controls [2, 16]: -4%
Time within which the effect on free glycerol disappears ([2]; 100 mg/kg oral, rat): within the sixth hour
Percent variations of plasma cholesterol with respect to the controls ([3]; 4 h): -12%
Percent variations of plasma cholesterol with respect to the controls ([3]; 6 h): -12%
Percent variations of plasma cholesterol with respect to the controls ([3]; 8 h): -13%
Percent variations of plasma cholesterol with respect to the controls ([3]; 10 h): -17%
Percent variations of plasma cholesterol with respect to the controls ([3]; 16 h): -14%
Percent variations of plasma cholesterol with respect to the controls ([3]; 24 h): -27%
Lowering of cholesterolemy ([3]; 100 mg/kg oral, rat): lowered at the eighth, tenth and twenty fourth hour
Peak plasma concentration of free nicotinic acid, times higher than that of niceritrole [4]: about two times higher
LD50 ([5]; ip, female): 296 mg/kg
LD50 ([5]; ip, male): 328 mg/kg
LD50 ([5]; po, female, os): 3850 mg/kg
LD50 ([5]; po, male, os): 3860 mg/kg
Tmax (in vivo): ≤ 30 min
concentration at 0.5 h (in vivo): 108000 ng/mL
concentration at 1 h (in vivo): 106000 ng/mL
concentration at 2 h (in vivo): 98300 ng/mL
concentration at 4 h (in vivo): 10600 ng/mL
concentration at 6 h (in vivo): 760 ng/mL
concentration at 8 h (in vivo): 250 ng/mL
concentration at 12 h (in vivo): 490 ng/mL
concentration at 16 h (in vivo): 120 ng/mL
Percent variations of plasma FFA with respect to the controls (plasma levels of FFA; [6]): -81%
Percent variations of plasma FFA with respect to the controls (plasma levels of FFA; [7]): -43%
Percent variations of plasma FFA with respect to the controls (plasma levels of FFA; [8]): +23%
Percent variations of plasma FFA with respect to the controls (plasma levels of FFA; [9]): +11%
FFA rebound (plasma levels of FFA; 30 mg/kg oral, rat): causes FFA rebound in the fourth hour
Percent variations of plasma FFA with respect to the controls (plasma levels of FFA; [10]): -77%
Percent variations of plasma FFA with respect to the controls (plasma levels of FFA; [11]): -68%
Percent variations of plasma FFA with respect to the controls (plasma levels of FFA; [12]): +23%
Percent variations of plasma FFA with respect to the controls (plasma levels of FFA; [13]): +23%
Percent variations of plasma FFA with respect to the controls (plasma levels of FFA; [14]): +13%
Percent variations of plasma FFA with respect to the controls (plasma levels of FFA; [15]): -9%
Percent variations of plasma FFA with respect to the controls (plasma levels of FFA; [16]): -5%
FFA rebound (plasma levels of FFA; 100 mg/kg oral, rat): eighth
Time within which the effect on FFA disappears (plasma levels of FFA; 100 mg/kg oral, rat): ≤ 6 h
